In patent publication US12065471B2, “B*44 restricted peptides for use in immunotherapy against cancers and related methods” (Immatics Biotechnologies GmbH, priority 2018, dated 2024):

How the values were obtained:
CD8+ T cells = assay: In vitro immunogenicity: T-cell priming with aAPCs loaded with peptide/MHC and anti-CD28, pMHC multimer readout; type: cell-based, human; conditions: Table 10b, pMHC multimer readout after T-cell priming
Procedure: After three cycles of stimulation, the detection of peptide-reactive cells was performed by 2D multimer staining with B*44/SEQ ID NO: 469 (FIG. 3A), B*44/SEQ ID NO: 512 (FIG. 3B), B*44/SEQ ID NO: 9 (FIG. 3C), B*44/SEQ ID NO: 11 (D), B*44/SEQ ID NO: 17 (E), B*44/SEQ ID NO: 35 (F) or B*44/SEQ ID NO: 41 (FIG. 3G). Right panels (FIGS. 3A through 3G) show control staining of cells stimulated with irrelevant B*44/peptide complexes. Viable singlet cells were gated for CD8+ lymphocytes. Boolean gates helped excluding false-positive events detected with multimers specific for different peptides.
In order to obtain information regarding the immunogenicity of the TUMAPs of the present invention, the inventors performed investigations using an in vitro T-cell priming assay based on repeated stimulations of CD8+ T cells with artificial antigen presenting cells (aAPCs) loaded with peptide/MHC complexes and anti-CD28 antibody.
In order to perform in vitro stimulations by artificial antigen presenting cells loaded with peptide-MHC complex (pMHC) and anti-CD28 antibody, the inventors first isolated CD8+ T cells from fresh HLA-A*02 leukapheresis products via positive selection using CD8 microbeads (Miltenyi Biotec, Bergisch-Gladbach, Germany) of healthy donors obtained from the University clinics Mannheim, Germany, after informed consent.
PBMCs and isolated CD8+ lymphocytes were incubated in T-cell medium (TCM) until use consisting of RPMI-Glutamax (Invitrogen, Karlsruhe, Germany) supplemented with 10% heat inactivated human AB serum (PAN-Biotech, Aidenbach, Germany), 100 U/ml Penicillin/100 μg/ml Streptomycin (Cambrex, Cologne, Germany), 1 mM sodium pyruvate (CC Pro, Oberdorda, Germany), 20 μg/ml Gentamycin (Cambrex). 2.5 ng/ml IL-7 (PromoCell, Heidelberg, Germany) and 10 U/ml IL-2 (Novartis Pharma, Nümberg, Germany) were also added to the TCM at this step.
Generation of pMHC/anti-CD28 coated beads, T-cell stimulations and readout was performed in a highly defined in vitro system using four different pMHC molecules per stimulation condition and 8 different pMHC molecules per readout condition.
The purified co-stimulatory mouse IgG2a anti human CD28 Ab 9.3 (Jung et al., 1987) was chemically biotinylated using Sulfo-N-hydroxysuccinimidobiotin as recommended by the manufacturer (Perbio, Bonn, Germany). Beads used were 5.6 μm diameter streptavidin coated polystyrene particles (Bangs Laboratories, Illinois, USA).
800.000 beads/200 μl were coated in 96-well plates in the presence of 4×12.5 ng different biotin-pMHC, washed and 600 ng biotin anti-CD28 were added subsequently in a volume of 200 μl. Stimulations were initiated in 96-well plates by co-incubating 1×10^6 CD8+ T cells with 2×10^5 washed coated beads in 200 μl TCM supplemented with 5 ng/ml IL-12 (PromoCell) for 3 days at 37° C. Half of the medium was then exchanged by fresh TCM supplemented with 80 U/ml IL-2 and incubating was continued for 4 days at 37° C. This stimulation cycle was performed for a total of three times. For the pMHC multimer readout using 8 different pMHC molecules per condition, a two-dimensional combinatorial coding approach was used as previously described (Andersen et al., 2012) with minor modifications encompassing coupling to 5 different fluorochromes. Finally, multimeric analyses were performed by staining the cells with Live/dead near IR dye (Invitrogen, Karlsruhe, Germany), CD8-FITC antibody clone SK1 (BD, Heidelberg, Germany) and fluorescent pMHC multimers. For analysis, a BD LSRII SORP cytometer equipped with appropriate lasers and filters was used. Peptide specific cells were calculated as percentage of total CD8+ cells. Evaluation of multimeric analysis was done using the FlowJo software (Tree Star, Oregon, USA). In vitro priming of specific multimer+CD8+ lymphocytes was detected by comparing to negative control stimulations.

HLA-B*44:05 = HLA-B*44:05 (Homo sapiens, UniProt P01889, A223V/A65T/A93T/A95T/D201E/D98Y/E176V/E187L/E204Q/E69K/G107R/H137Y/K202T/L105A/L119I/N104T/N87E/Q56L/Q94N/R106L/R155S/R180D/S101N/S121R/S35A/S48T/T118I/V36M/W191S/Y91S); assay: MHC binding assay (UV-ligand exchange, β2m ELISA, peptide exchange yield); conditions: binding to HLA-B*44:05
In short: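 Peptide–HLA complexes formed by UV-ligand exchange of a UV-cleavable peptide for the test peptide. Exchange yield measured by β2m ELISA: complexes diluted 100-fold and captured on streptavidin, detected with HRP anti-β2m and TMB, read at 450 nm. Quantified against refolded HLA-A*02:01/MLA-001 monomer standards, 15-500 ng/ml.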

| Peptide exchange (MHC class I binding score, peptide exchange yield) (HLA-B*44:05) | Substance | Wells positive [%] (CD8+ T cells) |
| --- | --- | --- |
| ++++ (>75% = ++++) | 22 (TEEITEGVW; listed as Homo sapiens) [compound 22] | + (<20% = +) |
| +++ (>50 = +++) | 24 (EELALRIGL; listed as Homo sapiens) [compound 24] | ++++ (>=70% = ++++) |
| ++ (>20% = ++) | 25 (SEKEPGQQY; listed as Homo sapiens) [compound 25] | ++ (20%-49% = ++) |
| +++ (>50 = +++) | 28 (QEFPAHSL; listed as Homo sapiens) [compound 28] | + (<20% = +) |
| +++ (>50 = +++) | 29 (TENPKKFKI; listed as Homo sapiens) [compound 29] | ++++ (>=70% = ++++) |
| +++ (>50 = +++) | 30 (EEFCFSVRF; listed as Homo sapiens) [compound 30] | + (<20% = +) |
| +++ (>50 = +++) | 31 (MESAKETRY; listed as Homo sapiens) [compound 31] | + (<20% = +) |
| ++++ (>75% = ++++) | 32 (REYEYDLKW; listed as Homo sapiens) [compound 32] | + (<20% = +) |
| ++ (>20% = ++) | 33 (IEYENQKRL; listed as Homo sapiens) [compound 33] | ++ (20%-49% = ++) |
| ++++ (>75% = ++++) | 35 (RELVHMINW; listed as Homo sapiens) [compound 35] | ++ (20%-49% = ++) |
| ++++ (>75% = ++++) | 36 (LEQASRIWSW; listed as Homo sapiens) [compound 36] | ++++ (>=70% = ++++) |
| ++++ (>75% = ++++) | 37 (IEQGRVVLW; listed as Homo sapiens) [compound 37] | ++++ (>=70% = ++++) |
| +++ (>50 = +++) | 39 (AEAMGKFKQCF; listed as Homo sapiens) [compound 39] | + (<20% = +) |
| +++ (>50 = +++) | 40 (REVDPDDSYVF; listed as Homo sapiens) [compound 40] | + (<20% = +) |
| +++ (>50 = +++) | 41 (EENTGKTYF; listed as Homo sapiens) [compound 41] | ++ (20%-49% = ++) |
| +++ (>50 = +++) | 42 (SEENTGKTYF; listed as Homo sapiens) [compound 42] | ++ (20%-49% = ++) |
| +++ (>50 = +++) | 44 (SEFGAPRW; listed as Homo sapiens) [compound 44] | ++++ (>=70% = ++++) |
| +++ (>50 = +++) | 45 (EEINELNRMI; listed as Homo sapiens) [compound 45] | +++ (50%-69% = +++) |
| +++ (>50 = +++) | 47 (TEVHSSPAQRW; listed as Homo sapiens) [compound 47] | +++ (50%-69% = +++) |

| Peptide exchange (MHC class I binding score, peptide exchange yield) (HLA-B*44:05) | Substance | Wells positive [%] (CD8+ T cells) |
| --- | --- | --- |
| ++ (>20% = ++) | 49 (SEYVHSSF; listed as Homo sapiens) [compound 49] | + (<20% = +) |
| ++ (>20% = ++) | 51 (VEMTGKHQL; listed as Homo sapiens) [compound 51] | ++ (20%-49% = ++) |
| +++ (>50 = +++) | 53 (KEDNPSGHTY; listed as Homo sapiens) [compound 53] | ++ (20%-49% = ++) |
| +++ (>50 = +++) | 54 (QEISAHRTEF; listed as Homo sapiens) [compound 54] | + (<20% = +) |
| + (>10% = +) | 56 (ALEEGGGYIF; listed as Homo sapiens) [compound 56] | + (<20% = +) |
| +++ (>50 = +++) | 57 (SEATHIITI; listed as Homo sapiens) [compound 57] | ++++ (>=70% = ++++) |
| ++ (>20% = ++) | 59 (AEIEADRSYQ; listed as Homo sapiens) [compound 59] | + (<20% = +) |
| +++ (>50 = +++) | 60 (EEAVRSVAF; listed as Homo sapiens) [compound 60] | ++ (20%-49% = ++) |
| +++ (>50 = +++) | 61 (AEYSVHKI; listed as Homo sapiens) [compound 61] | + (<20% = +) |
| ++++ (>75% = ++++) | 62 (AEYSVHKITSTF; listed as Homo sapiens) [compound 62] | + (<20% = +) |
| +++ (>50 = +++) | 66 (AEVTLNNTI; listed as Homo sapiens) [compound 66] | + (<20% = +) |
| ++++ (>75% = ++++) | 68 (NEIDIHSIYF; listed as Homo sapiens) [compound 68] | ++ (20%-49% = ++) |
| +++ (>50 = +++) | 69 (DENIQKFIW; listed as Homo sapiens) [compound 69] | ++ (20%-49% = ++) |
| +++ (>50 = +++) | 70 (AEAEEAMKRL; listed as Homo sapiens) [compound 70] | ++ (20%-49% = ++) |
| ++ (>20% = ++) | 71 (AEVGDIIKV; listed as Homo sapiens) [compound 71] | ++ (20%-49% = ++) |
| +++ (>50 = +++) | 72 (AEVGDIIKVHF; listed as Homo sapiens) [compound 72] | ++ (20%-49% = ++) |
| ++++ (>75% = ++++) | 73 (GEGTLRLSW; listed as Homo sapiens) [compound 73] | ++ (20%-49% = ++) |
| +++ (>50 = +++) | 78 (TEFSNHINL; listed as Homo sapiens) [compound 78] | ++ (20%-49% = ++) |
| +++ (>50 = +++) | 79 (TEAQRLDCW; listed as Homo sapiens) [compound 79] | + (<20% = +) |
